Holding throughout (test): cAMP assay (TR-FRET or HTRF kit, forskolin), Examples 5 and 6
What all share (type): cell-based

Assay [1] deals with T1, DP1 receptor (Homo sapiens, UniProt Q13258).
T1 construct: expressed in transfected cells
T1 sequence (Q13258 1-359): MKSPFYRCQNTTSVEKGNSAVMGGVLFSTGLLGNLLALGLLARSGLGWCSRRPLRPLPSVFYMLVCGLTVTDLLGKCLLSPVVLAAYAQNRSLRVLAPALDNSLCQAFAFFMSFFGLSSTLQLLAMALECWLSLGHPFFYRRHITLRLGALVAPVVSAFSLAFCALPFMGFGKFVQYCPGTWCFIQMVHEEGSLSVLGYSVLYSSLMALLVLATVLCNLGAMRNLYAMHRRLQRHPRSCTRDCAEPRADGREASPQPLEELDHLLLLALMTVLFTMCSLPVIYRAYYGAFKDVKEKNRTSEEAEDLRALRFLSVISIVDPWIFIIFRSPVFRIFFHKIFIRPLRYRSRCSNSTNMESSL
The settings on record: Table 3 (Example 5); read-out: EC50, DP receptor. On the procedure: (§1) [table] Prodrug XV (for structure see FIG. 10) as well as treprostinil were tested for 3 G-protein-coupled receptors (GPCRs), namely DP1, EP2, and IP, using cyclic adenosine monophosphate (cAMP) assay. Cyclic AMP assay kits: Multiscreen™ TR-FRET cAMP 1.0 No Wash Assay Kit (Multispan, Inc., Cat #MSCM01-25) and HTRF cAMP HiRange Kit (CisBio, Cat #62AM6PEC). Instruments: FlexStation III (Molecular Devices). Cyclic AMP (cAMP) Assay: cAMP assays were performed according to the manufacturer's protocol using Multiscreen™ TR-FRET cAMP 1.0 No Wash Assay Kit or HTRF cAMP HiRange Kit. […] The reaction was terminated by sequentially adding sequentially adding trFluor™ Eu-labeled cAMP and trFluor™ 650-labeled anti-cAMP antibody or D2-labeled cAMP and cryptate-labeled anti-cAMP antibody in lysis buffer. The plate was then incubated at room temperature for 60 minutes before reading fluorescent emissions at 620 nm and 665 or 668 nm with excitation at 314 nm on FlexStation III (Molecular Devices). Cyclic AMP (cAMP) assays: Cyclic AMP assay results are shown as “Ratio 665/620×10,000” (ratio of fluorescence at 665 nm and 620 nm×10,000) or “Ratio 668/620×10,000” (ratio of fluorescence at 668 nm and 620 nm×10,000). Data in graphs were represented in Mean±SD. Dose-dependent responses were fitted with sigmoidal dose-response curves allowing variable slopes using GraphPad Prism versions 4, 5 or 6 (Graphpad Prism). Treprostinil Prodrug XIV (for structure see FIG. 10) as well as treprostinil were tested for 3 G-protein-coupled receptors (GPCRs), namely DP1, EP2, and IP, using cyclin adenosine monophosphate (cAMP) assay. Cyclic AMP assay kits: Multiscreen™ TR-FRET cAMP 1.0 No Wash Assay Kit (Multispan, Inc., Cat #MSCM01-25) and HTRF cAMP HiRange Kit (CisBio, Cat #62AM6PEC). Cyclic AMP (cAMP) Assay: cAMP assays were performed according to the manufacturer's protocol using Multiscreen™ TR-FRET cAMP 1.0 No Wash Assay Kit or HTRF cAMP HiRange Kit. […] The reaction was terminated by sequentially adding sequentially adding trFluor™ Eu-labeled cAMP and trFluor™ 650-labeled anti-cAMP antibody or D2-labeled cAMP and cryptate-labeled anti-cAMP antibody in lysis buffer. The plate was then incubated at room temperature for 60 minutes before reading fluorescent emissions at 620 nm and 665 or 668 nm with excitation at 314 nm on FlexStation III (Molecular Devices). Cyclic AMP (cAMP) assays: Cyclic AMP assay results are shown as “Ratio 665/620×10,000” (ratio of fluorescence at 665 nm and 620 nm×10,000) or “Ratio 668/620×10,000” (ratio of fluorescence at 668 nm and 620 nm×10,000). Data in graphs were represented in Mean±SD. Dose-dependent responses were fitted with sigmoidal dose-response curves allowing variable slopes using GraphPad Prism versions 4, 5 or 6 (Graphpad Prism).

The target in assay [2] is T2, IP1 receptor (Homo sapiens, UniProt P43119).
T2 construct: expressed in transfected cells
The settings on record: Table 3 (Example 5); read-out: EC50, IP receptor. On the procedure: as §1

In assay [3] the target is T3, EP2 receptor (Homo sapiens, UniProt P43116).
T3 construct: expressed in transfected cells
The note with it: Table 3 (Example 5); read-out: EC50, EP receptor. The protocol:
as §1

As usually defined, the EC50 is the concentration needed to bring the measured effect to its halfway point.

T2 sequence (P43119 whole entry): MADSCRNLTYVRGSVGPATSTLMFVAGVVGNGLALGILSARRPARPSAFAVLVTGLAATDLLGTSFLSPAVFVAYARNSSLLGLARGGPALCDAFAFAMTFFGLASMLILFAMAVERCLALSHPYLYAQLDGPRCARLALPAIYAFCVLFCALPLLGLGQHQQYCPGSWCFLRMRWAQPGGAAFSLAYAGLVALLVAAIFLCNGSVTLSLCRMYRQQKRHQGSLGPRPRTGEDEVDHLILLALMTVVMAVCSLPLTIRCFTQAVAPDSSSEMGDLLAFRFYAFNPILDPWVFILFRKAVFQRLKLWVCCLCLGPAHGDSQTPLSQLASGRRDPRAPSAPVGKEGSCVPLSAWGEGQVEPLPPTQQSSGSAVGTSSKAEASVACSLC
T3 sequence (P43116 whole entry): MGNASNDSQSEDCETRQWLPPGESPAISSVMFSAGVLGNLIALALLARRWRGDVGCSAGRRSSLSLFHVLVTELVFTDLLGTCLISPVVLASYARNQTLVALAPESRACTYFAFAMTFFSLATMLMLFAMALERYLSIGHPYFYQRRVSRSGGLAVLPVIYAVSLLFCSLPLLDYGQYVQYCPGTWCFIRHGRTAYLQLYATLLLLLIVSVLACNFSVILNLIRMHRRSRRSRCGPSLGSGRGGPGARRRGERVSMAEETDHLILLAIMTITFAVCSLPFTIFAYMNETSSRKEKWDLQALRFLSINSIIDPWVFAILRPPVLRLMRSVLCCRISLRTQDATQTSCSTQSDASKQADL

For `CCCCC[C@H](O)CC[C@@H]1[C@H]2Cc3cccc(OCC(=O)O)c3C[C@H]2C[C@H]1O` [Treprostinil], the figures for the EC50 in assay [1], in assay [2] and in assay [3] were 0.078 nM, 0.0779 nM and 0.537 nM, respectively.

(Values after patent US11672775B2, “Treprostinil prodrugs” (United Therapeutics Corporation, priority 2016, dated 2023).)
